Reference: article PMC9821843, “Powerful Potential of Polyfluoroalkyl-Containing 4-Arylhydrazinylidenepyrazol-3-ones for Pharmaceuticals” (Molecules, 2022)
Converted amounts (≈) assume the structure as drawn. Like-named read-outs stand apart in the source and are kept apart here.

Columns and labels:
Sprague-Dawley (SD) rats = experiment: Hot plate test (analgesic activity); format: in vivo; details: ip, dose 15 mg/kg; for change in vivo at 15 mg/kg: Rattus norvegicus, hot plate test, rats, n.a. = inactive (p > 0.05)
Procedure: The hot plate test was conducted according to established guidelines on Sprague-Dawley (SD) rats (3 male and 3 female rodents per group). The compounds were intraperitoneally administered in the form of suspensions in 1% starch mucilage. Negative control group animals received vehicle only (1% starch mucilage). Diclofenac sodium (Hemofarm, Vršac, Serbia, 10 mg/kg in 1% starch mucilage solution) or metamizole sodium (PAO Biosynthesis, Sun Pharma, Penza, Russia, 15 mg/kg in 1% starch mucilage solution) were used as reference drugs. One and two hours after the injection, rats were placed on an electrically heated to 50 °C plate (Hot plate 60,200 series, TSE-systems, Bad Homburg, Germany) in a Plexiglas cylindrical restrainer (19 cm diameter × 30 cm). The nociceptive response time was measured by observing the appearance of rats’ movements (e.g., jumping, hind paw licking or shaking). Maximal cutoff time was set as 30 s regardless of the response in order to preclude skin damage.
Differences between the values of the latency period for the treated (experimental) and control groups of animals were considered significant at p ≤ 0.05.

[1] = Acute toxicity evaluation in mice (ip); details: CD-1, mouse, in vivo, 300 mg/kg
Procedure: The toxicity evaluation was performed on CD-1 mice. […] The tested compounds in 1% starch mucilage were injected intraperitoneally into three mice. Then, animals were observed during 14 days, the number of deaths was counted and % of viability calculated.

[2] = Oxygen radical absorbance capacity (ORAC-FL) assay; details: n.a. = inactive; i.t.s. = interferes with test system
From the text: We evaluated the primary antioxidant activity of synthesized 4-AHPs 5–9 in comparison with their non-fluorinated analogues 9a,b using three standard tests: ABTS, FRAP (ferric reducing antioxidant power) and ORAC (oxygen radical absorbance capacity) assays. The ABTS assay evaluates the binding of a model ABTS radical cation (ABTS^•+), which is realized by the mechanism of single electron transfer (SET) and/or hydrogen atom transfer (HAT). The FRAP assay measures the ability of compounds to reduce the ferric 2,4,6-tripyridyl-s-triazine complex [Fe(TPTZ)2]^3+ to [Fe(TPTZ)2]^2+, which occurs exclusively by the SET mechanism. The ORAC-FL assay measures the oxidative degradation of the fluorescent molecule (FL – fluorescein) after being mixed with a free peroxyl radical generator such as 2,2′-azobis-(2-methylpropionamidine) dihydrochloride (AAPH) in the presence of antioxidant (tested compound). The ORAC-FL test describes the antioxidants’ ability to yield the hydrogen atom and, consequently, it is a HAT-based assay. Trolox was used in all tests as a reference antioxidant: the antioxidant activity of the test compounds was referred to the activity of Trolox. The well-known antioxidant Edaravone was also used for comparison.
The ORAC assay was performed according to the known method, with minor variations and described by us recently.

[3] = system: Neisseria gonorrhoeae ATCC 49226/NCTC 12700; experiment: Antibacterial activity against Neisseria gonorrhoeae; format: cell-based; details: read-out: MIC against Neisseria gonorrhoeae
Procedure: Antibacterial activity testing was done on the growth medium Difco GC medium base (Becton Dickinson, Franklin Lakes, NJ, USA) supplemented with 1% IsoVitaleX. Dilutions of chemical compounds were carried out in the range of 250–0.12 μg/mL in 24 well sterile plates (Sarstedt, Germany). Daily cultures of control bacterial strains were identified on a VITEK MS analyzer (BioMérieux, Marcy-l’Étoile, France) by MALDI-TOF mass spectrometry. The inoculation dose of N. gonorrhoeae inoculum was 10^5 CFU/mL.

[4] = target: T1, human erythrocyte acetylcholinesterase (AChE, EC 3.1.1.7) (Homo sapiens, UniProt P22303); experiment: Inhibition of human erythrocyte acetylcholinesterase (Ellman assay); format: biochemical; details: read-out: Inhibition % at 20 µM, Human AChE
T1 construct: human erythrocyte acetylcholinesterase (AChE, EC 3.1.1.7); purchased Sigma-Aldrich (Saint Louis, MO, USA); host or cells: human erythrocytes
T1 sequence (P22303 32-617 isoform P22303-2 limits assumed): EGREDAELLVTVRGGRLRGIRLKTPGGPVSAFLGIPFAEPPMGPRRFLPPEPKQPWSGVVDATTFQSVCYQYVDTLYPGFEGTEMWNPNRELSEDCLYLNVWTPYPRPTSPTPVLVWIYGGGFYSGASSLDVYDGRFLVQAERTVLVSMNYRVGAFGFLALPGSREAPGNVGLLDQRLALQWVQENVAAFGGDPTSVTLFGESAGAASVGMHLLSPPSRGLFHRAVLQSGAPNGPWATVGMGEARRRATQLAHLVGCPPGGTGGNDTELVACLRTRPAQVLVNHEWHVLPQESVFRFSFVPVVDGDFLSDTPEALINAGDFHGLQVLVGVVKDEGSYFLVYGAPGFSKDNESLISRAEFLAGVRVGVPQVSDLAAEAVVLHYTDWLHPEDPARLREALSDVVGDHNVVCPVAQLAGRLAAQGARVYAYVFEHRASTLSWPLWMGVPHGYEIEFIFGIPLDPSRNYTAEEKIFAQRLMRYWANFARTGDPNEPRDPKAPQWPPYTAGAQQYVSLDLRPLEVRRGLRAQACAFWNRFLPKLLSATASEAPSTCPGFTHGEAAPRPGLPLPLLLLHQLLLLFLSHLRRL
From the text: (§1) The following enzymes were purchased from Sigma-Aldrich (Saint Louis, MO, USA): porcine liver carboxylesterase (CES, EC 3.1.1.1), human erythrocyte acetylcholinesterase (AChE, EC 3.1.1.7) and equine serum butyrylcholinesterase (BChE, EC 3.1.1.8). Substrates for CES, AChE and BChE were 4-nitrophenyl acetate (4-NPA), acetylthiocholine iodide (ATCh) and butyrylthiocholine iodide (BTCh), respectively, and the colorimetric reagent for the AChE and BChE assays was 5,5’-dithio-bis-(2-nitrobenzoic acid) (DTNB) (Sigma-Aldrich). All the kinetic experiments were performed under standard conditions, according to the protocol of IPAC RAS for a reversible inhibitors study.
Reagent blanks consisted of reaction mixtures without enzyme to assess non-enzymatic hydrolysis of substrates.
Test compounds were dissolved in DMSO. Reaction mixtures contained a final DMSO concentration of 2% (v/v). […] Measurements were performed in a Bio-Rad Benchmark Plus microplate reader. Each experiment was performed in triplicate. Plots, linear regressions and values of IC50, were determined using Origin 6.1 for Windows, OriginLab (Northampton, MA, USA).

[5] = ABTS radical cation scavenging activity assay; set-up: key to ABTS•+-scavenging activity, TEAC (trolox equivalent antioxidant capacity): TEAC = ratio of compound slope to Trolox slope vs ABTS absorbance; details: mean ± SEM; for ABTS•+-scavenging activity, TEAC (trolox equivalent antioxidant capacity): n.a. = inactive
Procedure: Radical scavenging activity of the compounds was evaluated by the ABTS radical cation (ABTS^•+) scavenging assay by the ability of the compounds to decolorize the ABTS^•+ solution [112] with some modifications. Trolox was used as a reference standard. Edaravone was used as the comparison compound. All tested compounds and standards were dissolved in DMSO. ABTS (2,2′-azinobis-(3-ethylbenzothiazoline-6-sulfonic acid)) was purchased from Tokyo Chemical Industry Co. Ltd. (Tokyo, Japan). Potassium persulfate (di-potassium peroxdisulfate), Trolox® (6-hydroxy-2,5,7,8-tetramethychroman-2-carboxylic acid), ascorbic acid, DMSO and HPLC-grade ethanol were obtained from Sigma-Aldrich Chemical Co. Aqueous solutions were prepared using deionized water.
The solution of ABTS^•+ was produced by mixing 7 mM ABTS aqueous solution with 2.45 mM potassium persulfate aqueous solution in equal quantities and allowing them to react for 12–16 h at room temperature in the dark. Radical scavenging capacity of the compounds was analyzed by mixing 10 μL of compound with 240 μL of ABTS^•+ working solution in ethanol (100 μM final concentration), and after 1 h of incubation at 30 °C the decrease in absorbance was measured spectrophotometrically at 734 nm using a Bio-Rad xMark microplate UV/VIS spectrophotometer (Bio-Rad, Hercules, CA, USA). The compounds were tested in the concentration range of 5 × 10^–7–4 × 10^–4 M. Ethanol blanks were run in each assay. Values were obtained from five replicates of each sample and three independent experiments.
Antioxidant activity was calculated as Trolox equivalent antioxidant capacity (TEAC values), consisting of the ratio between the slopes obtained from the linear correlation for concentrations of the tested compounds and Trolox with absorbance of ABTS radical. For the test compounds, which reduce ABTS^•+ absorbance by more than 60% at 100 µM, we also determined IC50 values as 50% reduction of the ABTS radical. The calculations were carried out using Origin 6.1 for Windows. Results were presented as mean ± SEM, calculated using GraphPad Prism version 6.05 for Windows, GraphPad Software.

[6] = system: Trichophyton rubrum RCPF F 1408; experiment: Antifungal susceptibility testing, T. rubrum; details: Trichophyton rubrum, RCPFF1408, read-out: MIC for fungi strains inhibition, T. rubrum
From the text: (§2) The solvent was DMSO. […] In each test, a growth control and a sterility control were used.

[7] = system: Epidermophyton floccosum RCPF F 1659/17; experiment: Antifungal susceptibility testing, E. floccosum; details: Epidermophyton floccosum, RCPFF1659/17, read-out: MIC for fungi strains inhibition, E. floccosum
From the text: as §2

[8] = system: Microsporum canis RCPF F 1643/1585; experiment: Antifungal susceptibility testing, M. canis; details: Microsporum canis, RCPFF1643/1585, read-out: MIC for fungi strains inhibition, M. canis
From the text: as §2

[9] = target: T2, equine serum butyrylcholinesterase (BChE, EC 3.1.1.8) (Equus caballus, UniProt P81908); experiment: Inhibition of equine serum butyrylcholinesterase (Ellman assay); format: biochemical; details: read-out: Inhibition % at 20 µM, Equine BChE
T2 construct: equine serum butyrylcholinesterase (BChE, EC 3.1.1.8); purchased Sigma-Aldrich (Saint Louis, MO, USA); host or cells: equine serum
T2 sequence (P81908 whole entry): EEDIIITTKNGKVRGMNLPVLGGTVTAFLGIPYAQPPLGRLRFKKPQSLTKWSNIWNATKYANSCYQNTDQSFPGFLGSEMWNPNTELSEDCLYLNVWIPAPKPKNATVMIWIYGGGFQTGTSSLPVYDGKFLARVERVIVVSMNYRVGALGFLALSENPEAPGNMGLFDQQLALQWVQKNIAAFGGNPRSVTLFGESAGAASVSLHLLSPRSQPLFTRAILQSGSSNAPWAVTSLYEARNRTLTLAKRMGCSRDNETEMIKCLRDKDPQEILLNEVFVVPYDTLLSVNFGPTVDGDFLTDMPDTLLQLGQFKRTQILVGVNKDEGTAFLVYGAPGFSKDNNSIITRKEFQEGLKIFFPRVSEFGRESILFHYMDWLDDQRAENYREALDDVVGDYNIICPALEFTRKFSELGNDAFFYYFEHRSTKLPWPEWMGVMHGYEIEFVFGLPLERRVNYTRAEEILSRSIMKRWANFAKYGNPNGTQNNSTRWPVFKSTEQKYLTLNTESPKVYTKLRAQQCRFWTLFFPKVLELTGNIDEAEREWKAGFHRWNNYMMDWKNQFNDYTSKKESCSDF
From the text: as §1
Final concentrations of reactants were 0.33 mM DTNB, 0.02 unit/mL of AChE or BChE and 1 mM of substrate (ATCh or BTCh, respectively). Reagent blanks consisted of reaction mixtures without enzyme to assess non-enzymatic hydrolysis of substrates.
Test compounds were dissolved in DMSO. Reaction mixtures contained a final DMSO concentration of 2% (v/v). […] Substrate was then added and residual enzyme activity relative to an inhibitor-free control was measured using a Bio-Rad Benchmark Plus microplate reader (Marnes-la-Coquette, France).
Measurements were performed in a Bio-Rad Benchmark Plus microplate reader. Each experiment was performed in triplicate. Plots, linear regressions and values of IC50, were determined using Origin 6.1 for Windows, OriginLab (Northampton, MA, USA).

[10] = system: Candida albicans RCPF Y 401/NCTC 885/653; experiment: Antifungal susceptibility testing, C. albicans; details: NCTC885, read-out: MIC for fungi strains inhibition, C. albicans
From the text: as §2

[11] = 2 h, read-out: Latent Period Prolongation, % 2 h
[12] = 1 h, read-out: Latent Period Prolongation, % 1 h

SMILES | change in vivo at 15 mg/kg (Sprague-Dawley (SD) rats; [11]) [%] | survival at 14 days [1] [%] | ORAC-FL (TE, antioxidant activity in Trolox equivalents) [2] | MIC [3] [µg/mL] | inhibition at 20 µM [4] [%] | IC50 [5] [µM] | ABTS•+-scavenging activity, TEAC (trolox equivalent antioxidant capacity) [5] | change in vivo at 15 mg/kg (Sprague-Dawley (SD) rats; [12]) [%] | MIC [6] [µg/mL] | MIC [7] [µg/mL] | MIC [8] [µg/mL] | inhibition at 20 µM [9] [%] | MIC [10] [µg/mL] | analgesic activity in the hot plate test (Sprague-Dawley (SD) rats; SD rats, 1 and 2 h)
COc1ccc(N/N=C2\C(=O)N(c3ccccc3)N=C2C(F)(F)F)cc1 [5g, (4Z)-4-(2-(4-Methoxyphenyl)hydrazinylidene)-2-phenyl-5-(trifluoromethyl)-2,4-dihydro-3H-pyrazol-3-one] | 76.9 | 100 | 2.20 ± 0.36 | 0.9 (≈ 2.48 µM) | 12.3 ± 2.3 | 55.6 ± 2.4 | 0.35 ± 0.03 | – | – | – | – | – | – | –
O=C1/C(=N\Nc2ccc(F)cc2)C(C(F)(F)F)=NN1c1ccccc1 [5h, (4Z)-4-[2-(4-Fluorophenyl)hydrazinylidene]-2-phenyl-5-(trifluoromethyl)-2,4-dihydro-3H-pyrazol-3-one] | 67 | 100 | – | 125 (≈ 357 µM) | 7 ± 1.2 | – | 0.05 ± 0.004 | 66 | > 200 | > 200 | > 200 | 3.2 ± 0.6 | > 200 | –
CCOC(=O)c1ccc(N/N=C2\C(=O)N(c3ccccc3)N=C2C(F)(F)F)cc1 [5l, (4Z)-4-[2-(4-Ethoxycarbonyl)hydrazinylidene]-2-phenyl-5-(trifluoromethyl)-2,4-dihydro-3H-pyrazol-3-one] | 107 | 100 | i.t.s. | 31.2 (≈ 77.2 µM) | 16.7 ± 1.5 | – | – | 68.1 | – | – | – | 3.2 ± 0.8 | – | –
Cc1ccc(N/N=C2\C(=O)N(c3ccc(S(C)(=O)=O)cc3)N=C2C(F)(F)F)cc1 [5q, (4Z)-2-[4-(Methylsulfonyl)phenyl]-4-[2-(4-methylphenyl)hydrazinylidene]-5-(trifluoromethyl)-2,4-dihydro-3H-pyrazol-3-one] | 110 | 100 | i.t.s. | > 250 | 4.3 ± 0.8 | – | 0.02 ± 0.001 | 104 | – | – | – | – | – | –
O=C1/C(=N\Nc2ccccc2Cl)C(C(F)(F)C(F)(F)F)=NN1c1ccccc1 [6c, (4Z)-4-[2-(2-Chlorophenyl)hydrazinylidene]-5-(pentafluoroethyl)-2-phenyl-2,4-dihydro-3H-pyrazol-3-one] | 51 | 100 | – | > 250 | 3.3 ± 0.6 | – | – | 75 | 200 (≈ 480 µM) | > 200 | > 200 | 6.5 ± 1 | > 200 | –
O=C1/C(=N\Nc2c(Cl)cccc2Cl)C(C(F)(F)C(F)(F)F)=NN1c1ccccc1 [6e, (4Z)-4-[2-(2,6-Dichlorophenyl)hydrazinylidene]-5-(pentafluoroethyl)-2-phenyl-2,4-dihydro-3H-pyrazol-3-one] | – | 100 | – | 62.5 (≈ 139 µM) | 6 ± 1 | – | – | – | > 200 | 200 (≈ 443 µM) | > 200 | 6.2 ± 1.2 | > 200 | inactive
CCOC(=O)c1ccc(N/N=C2\C(=O)N(c3ccccc3)N=C2C(F)(F)C(F)(F)F)cc1 [6g, (4Z)-4-[2-(4-Ethoxycarbonylphenyl)hydrazinylidene]-5-(pentafluoroethyl)-2-phenyl-2,4-dihydro-3H-pyrazol-3-one] | 73 | 100 | – | 15.6 (≈ 34.3 µM) | 6.2 ± 0.9 | – | – | 67 | > 200 | > 200 | > 200 | 4.2 ± 0.8 | > 200 | –
